Source: PubChem BioAssay (NCI)
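1) Cells in 96-well plates. 2) Compound, 48 h, 5 concentrations. 3) Linear interpolation between surrounding doses. 4) Unreached endpoint = highest concentration. TGI: total growth inhibition.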

Columns and labels:
Test in all cases: NCI tumour cell line growth inhibition, 48 h
786-0 renal = tested on: 786-0 renal
A498 renal = tested on: A498 renal
A549 NSCLC = tested on: A549 NSCLC
ACHN renal = tested on: ACHN renal
BT-549 breast = tested on: BT-549 breast
CAKI-1 renal = tested on: CAKI-1 renal
CCRF-CEM leukemia = tested on: CCRF-CEM leukemia
DU-145 prostate = tested on: DU-145 prostate
EKVX NSCLC = tested on: EKVX NSCLC
HCC-2998 colon = tested on: HCC-2998 colon
HCT-116 colon = tested on: HCT-116 colon
HCT-15 colon = tested on: HCT-15 colon
HL-60(TB) leukemia = tested on: HL-60(TB) leukemia
HOP-62 NSCLC = tested on: HOP-62 NSCLC
HOP-92 NSCLC = tested on: HOP-92 NSCLC
HS 578T breast = tested on: HS 578T breast
HT29 colon = tested on: HT29 colon
IGROV1 ovarian = tested on: IGROV1 ovarian
K-562 leukemia = tested on: K-562 leukemia
KM12 colon = tested on: KM12 colon
LOX IMVI melanoma = tested on: LOX IMVI melanoma
M14 melanoma = tested on: M14 melanoma
MALME-3M melanoma = tested on: MALME-3M melanoma
MCF7 breast = tested on: MCF7 breast
MDA-MB-231 breast = tested on: MDA-MB-231 breast
MDA-N = tested on: MDA-N
MOLT-4 leukemia = tested on: MOLT-4 leukemia
NCI-H226 lung = tested on: NCI-H226 lung
NCI-H23 lung = tested on: NCI-H23 lung
NCI-H460 lung = tested on: NCI-H460 lung
NCI-H522 lung = tested on: NCI-H522 lung
OVCAR-3 ovarian = tested on: OVCAR-3 ovarian
OVCAR-4 ovarian = tested on: OVCAR-4 ovarian
OVCAR-5 ovarian = tested on: OVCAR-5 ovarian
OVCAR-8 ovarian = tested on: OVCAR-8 ovarian
PC-3 prostate = tested on: PC-3 prostate
RPMI-8226 leukemia = tested on: RPMI-8226 leukemia
RXF 393 renal = tested on: RXF 393 renal
SF-268 CNS = tested on: SF-268 CNS
SF-295 CNS = tested on: SF-295 CNS
SF-539 CNS = tested on: SF-539 CNS
SK-MEL-28 melanoma = tested on: SK-MEL-28 melanoma
SK-MEL-5 melanoma = tested on: SK-MEL-5 melanoma
SN12C renal = tested on: SN12C renal
SNB-19 CNS = tested on: SNB-19 CNS
SNB-75 CNS = tested on: SNB-75 CNS
SR leukemia = tested on: SR leukemia
SW-620 colon = tested on: SW-620 colon
T-47D breast = tested on: T-47D breast
TK-10 renal = tested on: TK-10 renal
U251 CNS = tested on: U251 CNS
UACC-257 melanoma = tested on: UACC-257 melanoma
UO-31 renal = tested on: UO-31 renal
COLO 205 colon = tested on: COLO 205 colon
MDA-MB-435 = tested on: MDA-MB-435
NCI/ADR-RES ovarian = tested on: NCI/ADR-RES ovarian
SK-MEL-2 melanoma = tested on: SK-MEL-2 melanoma
SK-OV-3 ovarian = tested on: SK-OV-3 ovarian
UACC-62 melanoma = tested on: UACC-62 melanoma

## O=C(c1cc(Cl)ccc1Cl)N1CCN(C(=O)c2cc(Cl)ccc2Cl)CC1
786-0 renal
  TGI: > 100000 nM
A498 renal
  TGI: > 100000 nM
A549 NSCLC
  TGI: > 100000 nM
ACHN renal
  TGI: > 100000 nM
BT-549 breast
  TGI: > 100000 nM
CAKI-1 renal
  TGI: > 100000 nM
CCRF-CEM leukemia
  TGI: > 100000 nM
DU-145 prostate
  TGI: > 100000 nM
EKVX NSCLC
  TGI: > 100000 nM
HCC-2998 colon
  TGI: > 100000 nM
HCT-116 colon
  TGI: > 100000 nM
HCT-15 colon
  TGI: > 100000 nM
HL-60(TB) leukemia
  TGI: > 100000 nM
HOP-62 NSCLC
  TGI: > 100000 nM
HOP-92 NSCLC
  TGI: > 100000 nM
HS 578T breast
  TGI: > 100000 nM
HT29 colon
  TGI: > 100000 nM
IGROV1 ovarian
  TGI: > 100000 nM
K-562 leukemia
  TGI: > 100000 nM
KM12 colon
  TGI: > 100000 nM
LOX IMVI melanoma
  TGI: > 100000 nM
M14 melanoma
  TGI: > 100000 nM
MALME-3M melanoma
  TGI: > 100000 nM
MCF7 breast
  TGI: > 100000 nM
MDA-MB-231 breast
  TGI: > 100000 nM
MDA-N
  TGI: > 100000 nM
MOLT-4 leukemia
  TGI: > 100000 nM
NCI-H226 lung
  TGI: > 100000 nM
NCI-H23 lung
  TGI: > 100000 nM
NCI-H460 lung
  TGI: > 100000 nM
NCI-H522 lung
  TGI: > 100000 nM
OVCAR-3 ovarian
  TGI: > 100000 nM
OVCAR-4 ovarian
  TGI: > 100000 nM
OVCAR-5 ovarian
  TGI: > 100000 nM
OVCAR-8 ovarian
  TGI: > 100000 nM
PC-3 prostate
  TGI: > 100000 nM
RPMI-8226 leukemia
  TGI: > 100000 nM
RXF 393 renal
  TGI: > 100000 nM
SF-268 CNS
  TGI: > 100000 nM
SF-295 CNS
  TGI: > 100000 nM
SF-539 CNS
  TGI: > 100000 nM
SK-MEL-28 melanoma
  TGI: > 100000 nM
SK-MEL-5 melanoma
  TGI: > 100000 nM
SN12C renal
  TGI: > 100000 nM
SNB-19 CNS
  TGI: > 100000 nM
SNB-75 CNS
  TGI: > 100000 nM
SR leukemia
  TGI: > 100000 nM
SW-620 colon
  TGI: > 100000 nM
T-47D breast
  TGI: > 100000 nM
TK-10 renal
  TGI: > 100000 nM
U251 CNS
  TGI: > 100000 nM
UACC-257 melanoma
  TGI: > 100000 nM
UO-31 renal
  TGI: > 100000 nM

## C[C@]12CC[C@H]3[C@@H](CC[C@]4(O)C[C@@H](O)CC[C@]34/C=N/O)[C@@]1(O)CC[C@@H]2C1=COC(=O)C1
786-0 renal
  TGI: 362 nM
A498 renal
  TGI: 583 nM
A549 NSCLC
  TGI: 115 nM
ACHN renal
  TGI: 670 nM
BT-549 breast
  TGI: 245 nM
CAKI-1 renal
  TGI: 47.6 nM
CCRF-CEM leukemia
  TGI: > 100000 nM
COLO 205 colon
  TGI: 1330 nM
DU-145 prostate
  TGI: 111 nM
EKVX NSCLC
  TGI: 344 nM
HCC-2998 colon
  TGI: 687 nM
HCT-116 colon
  TGI: 165 nM
HCT-15 colon
  TGI: 450 nM
HOP-92 NSCLC
  TGI: 1060 nM
HS 578T breast
  TGI: > 100000 nM
HT29 colon
  TGI: 594 nM
IGROV1 ovarian
  TGI: 2980 nM
K-562 leukemia
  TGI: 930 nM
KM12 colon
  TGI: 2510 nM
LOX IMVI melanoma
  TGI: 489 nM
M14 melanoma
  TGI: 657 nM
MALME-3M melanoma
  TGI: 1090 nM
MDA-MB-435
  TGI: 623 nM
MDA-N
  TGI: 1030 nM
NCI-H226 lung
  TGI: 1350 nM
NCI-H23 lung
  TGI: 272 nM
NCI-H460 lung
  TGI: 166 nM
NCI-H522 lung
  TGI: 371 nM
NCI/ADR-RES ovarian
  TGI: 604 nM
OVCAR-3 ovarian
  TGI: 349 nM
OVCAR-4 ovarian
  TGI: 279 nM
OVCAR-5 ovarian
  TGI: 998 nM
OVCAR-8 ovarian
  TGI: 458 nM
PC-3 prostate
  TGI: 532 nM
RXF 393 renal
  TGI: 91 nM
SF-268 CNS
  TGI: 331 nM
SF-295 CNS
  TGI: 386 nM
SF-539 CNS
  TGI: 221 nM
SK-MEL-2 melanoma
  TGI: 587 nM
SK-MEL-28 melanoma
  TGI: 2060 nM
SK-MEL-5 melanoma
  TGI: 241 nM
SK-OV-3 ovarian
  TGI: 403 nM
SN12C renal
  TGI: 1240 nM
SNB-19 CNS
  TGI: 2050 nM
SNB-75 CNS
  TGI: 4440 nM
T-47D breast
  TGI: 975 nM
TK-10 renal
  TGI: 454 nM
UACC-257 melanoma
  TGI: 1620 nM
UACC-62 melanoma
  TGI: 919 nM
